According to PMC7755424 (Journal of medicinal chemistry, 2020):
Values after ≈ are worked out from the molar mass of the structure shown. One block for each molecule: values may come before it.

Experiments:
[1] = Solubility by light scattering; assay type: physicochemical; settings: 1% DMSO:99% PBS buffer
[2] = target: T1, human sEH (Homo sapiens, UniProt P34913); assay: sEH inhibition, fluorescent-based assay; assay type: biochemical; settings: for reduction of the potency (hsEH) relative to 12: compared with 12
T1 sequence (P34913 1-555): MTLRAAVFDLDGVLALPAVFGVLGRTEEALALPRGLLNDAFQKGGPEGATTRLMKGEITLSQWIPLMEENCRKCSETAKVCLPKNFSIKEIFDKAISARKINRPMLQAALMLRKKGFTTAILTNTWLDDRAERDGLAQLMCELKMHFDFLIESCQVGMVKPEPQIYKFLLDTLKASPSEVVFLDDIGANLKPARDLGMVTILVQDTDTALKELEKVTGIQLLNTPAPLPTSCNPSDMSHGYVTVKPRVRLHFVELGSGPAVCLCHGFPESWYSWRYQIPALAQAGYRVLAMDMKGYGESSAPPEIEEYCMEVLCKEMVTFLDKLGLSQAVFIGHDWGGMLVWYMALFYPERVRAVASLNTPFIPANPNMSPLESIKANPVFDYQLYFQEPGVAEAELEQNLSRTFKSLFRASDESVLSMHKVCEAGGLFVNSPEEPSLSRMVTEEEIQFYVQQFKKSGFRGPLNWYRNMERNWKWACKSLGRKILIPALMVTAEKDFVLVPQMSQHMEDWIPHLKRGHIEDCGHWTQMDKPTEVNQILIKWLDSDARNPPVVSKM

[3] = tested on: human recombinant cytochrome P450 enzymes, mainly CYP1A2, CYP2C9, CYP2C19, CYP2D6 and CYP3AE; assay: Cytochrome P450 inhibition assay; assay type: in vitro ADME
[4] = tested on: Peripheral Blood Mononuclear Cells (PBMC); assay: Cytotoxicity in PBMCs cells + 1.5% PHA; assay type: cell-based; settings: highest concentration tested (20 μM)
[5] = target: hERG channel (Homo sapiens, UniProt Q12809); assay: hERG inhibition; settings: at 10 μM
hERG channel, sequence (Q12809 whole entry): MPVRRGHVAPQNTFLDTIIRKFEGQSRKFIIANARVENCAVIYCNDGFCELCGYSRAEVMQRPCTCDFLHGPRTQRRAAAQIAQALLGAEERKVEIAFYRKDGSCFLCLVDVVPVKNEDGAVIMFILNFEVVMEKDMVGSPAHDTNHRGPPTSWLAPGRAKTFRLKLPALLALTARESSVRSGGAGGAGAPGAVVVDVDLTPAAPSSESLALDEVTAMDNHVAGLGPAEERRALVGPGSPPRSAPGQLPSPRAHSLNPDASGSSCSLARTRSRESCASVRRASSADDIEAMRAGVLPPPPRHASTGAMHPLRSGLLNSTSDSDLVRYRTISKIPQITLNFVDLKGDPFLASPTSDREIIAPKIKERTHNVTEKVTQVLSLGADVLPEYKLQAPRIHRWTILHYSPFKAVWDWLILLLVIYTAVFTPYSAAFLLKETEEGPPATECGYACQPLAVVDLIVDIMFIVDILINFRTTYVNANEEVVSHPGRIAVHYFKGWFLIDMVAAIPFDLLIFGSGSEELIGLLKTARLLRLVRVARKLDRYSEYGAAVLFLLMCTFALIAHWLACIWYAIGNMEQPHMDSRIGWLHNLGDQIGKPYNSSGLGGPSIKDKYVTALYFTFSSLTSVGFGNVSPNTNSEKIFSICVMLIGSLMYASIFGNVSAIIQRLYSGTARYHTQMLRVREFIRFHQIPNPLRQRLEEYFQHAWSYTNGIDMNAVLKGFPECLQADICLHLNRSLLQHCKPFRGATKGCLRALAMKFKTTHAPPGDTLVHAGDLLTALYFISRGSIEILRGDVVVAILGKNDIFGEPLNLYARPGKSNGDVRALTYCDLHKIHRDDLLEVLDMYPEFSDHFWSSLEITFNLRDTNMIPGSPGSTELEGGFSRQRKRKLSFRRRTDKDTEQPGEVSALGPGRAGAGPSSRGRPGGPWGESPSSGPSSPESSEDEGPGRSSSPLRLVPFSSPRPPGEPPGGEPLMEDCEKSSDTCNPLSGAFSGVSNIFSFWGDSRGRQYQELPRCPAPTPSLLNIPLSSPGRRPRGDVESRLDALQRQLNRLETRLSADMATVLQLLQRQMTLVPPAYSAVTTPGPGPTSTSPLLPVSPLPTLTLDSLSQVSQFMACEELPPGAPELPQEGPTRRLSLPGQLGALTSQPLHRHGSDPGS

[6] = target: T2, hLOX-5 (Homo sapiens, UniProt P09917); assay: Inhibition of human lipoxygenase-5; assay type: biochemical; settings: selectivity
T2 sequence (P09917 1-674): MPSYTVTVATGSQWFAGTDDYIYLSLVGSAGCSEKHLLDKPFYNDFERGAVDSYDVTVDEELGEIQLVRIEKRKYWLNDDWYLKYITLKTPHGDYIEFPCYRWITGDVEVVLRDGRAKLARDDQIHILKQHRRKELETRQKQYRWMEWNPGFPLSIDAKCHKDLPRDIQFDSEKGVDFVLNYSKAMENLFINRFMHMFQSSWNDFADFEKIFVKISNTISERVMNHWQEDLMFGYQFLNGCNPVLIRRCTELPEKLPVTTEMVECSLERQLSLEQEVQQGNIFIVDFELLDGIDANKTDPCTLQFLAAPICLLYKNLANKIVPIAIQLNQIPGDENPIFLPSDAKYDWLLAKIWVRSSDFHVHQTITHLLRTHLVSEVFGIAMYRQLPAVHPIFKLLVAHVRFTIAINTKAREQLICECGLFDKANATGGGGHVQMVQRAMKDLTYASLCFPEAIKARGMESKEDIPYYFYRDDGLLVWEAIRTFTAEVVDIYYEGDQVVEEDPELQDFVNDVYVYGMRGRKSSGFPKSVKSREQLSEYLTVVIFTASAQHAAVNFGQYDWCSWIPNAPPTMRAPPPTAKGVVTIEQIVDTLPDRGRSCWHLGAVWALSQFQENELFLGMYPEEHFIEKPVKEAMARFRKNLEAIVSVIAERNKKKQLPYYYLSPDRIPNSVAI

[7] = tested on: cerulein-induced AP; assay: In vivo efficacy, cerulein-induced AP, pre-induction; design: species or system C57BL/6J mice
[8] = tested on: AR42J pancreatic acinar rat cell line; assay: In vitro proof of concept: cerulein-induced AP in AR42J cells; assay type: cell-based; settings: 60 μM, cerulein 10 nM
[9] = tested on: cerulein-induced AP; assay: In vivo efficacy, cerulein-induced AP, post-induction; design: species or system C57BL/6J mice; settings: for inflammatory (TNF-α, IL-1β and MCP-1) and ER stress (ATF3) markers mRNA: post-induction, vs cerulein only
[10] = Maximum tolerated dose study; assay type: in vivo; settings: mice, ip daily, 5, 10, 20 and 80 mg/kg, five consecutive days
[11] = Pharmacokinetic study in mouse; settings: IP, 1 mg/kg

solubility at 2 h [1]: 24 µM (≈ 7.67 µg/mL)
SMILES: CC(=O)N1CCC(NC(=O)NC23CC4CC(CC(C4)C2)C3)CC1 [Compound 1, 1-(1-Acetyl-piperidin-4-yl)-3-adamantan-1-yl-urea]

IC50 [2]: 47.4 nM
SMILES: O=C(Nc1ccc(F)c(F)c1F)NC12CC3CC(C1)OC(C3)C2 [Compound 4, 1-(2-oxaadamant-5-yl)-3-(2,3,4-trifluorophenyl)urea]

IC50 [2]: 31.3 nM
SMILES: O=C(Nc1ccc(F)c(F)c1F)NC12OC3C4C5CC(C6C5C3C61)C42 (stereo not shown) [Compound 9, 1-(4-oxahexacyclo[5.4.1.0^2,6.0^3,10.0^5,9.0^8,11]dodecan-3-yl)-3-(2,3,4-trifluorophenyl)urea]

SMILES: CC(=O)N1CCC(NC(=O)NC23CC4CC(CC(C4)O2)C3)CC1 [Compound 12, 1-(1-acetylpiperidin-4-yl)-3-(oxaadamant-1-yl)urea]
potency inhibiting the different cytochromes tested [3]: higher than 10 μM
cytotoxicity in the PBMC [4]: not cytotoxic
inhibition on hERG [5]: minimal inhibition

SMILES: O=C(NC1CCN(Cc2ccccc2)CC1)NC12CC3CC(CC(C3)O1)C2 [Compound 15, 1-(2-Oxaadamant-1-yl)-3-(1-benzylpiperidin-4-yl)urea]
reduction of the potency (hsEH) relative to 12 [2]: ~40 fold

SMILES: O=C(NC1CCN(C(=O)C2CCOCC2)CC1)NC12CC3CC(CC(C3)O1)C2 [Compound 19, 1-(2-Oxaadamant-1-yl)-3-(1-(tetrahydro-2H-pyran-4-carbonyl)piperidin-4-yl)urea]
reduction of the potency (hsEH) relative to 12 [2]: 10–15 fold

SMILES: O=C(NC1CCN(C(=O)c2cccnc2)CC1)NC12CC3CC(CC(C3)O1)C2 [Compound 20, 1-(2-Oxaadamant-1-yl)-3-(1-nicotinoylpiperidin-4-yl)urea]
drop in inhibitory activity (hsEH) relative to 21 ([2]; 3-pyridyl vs 2-fluorophenyl (21)): 3 folds

SMILES: O=C(NC1CCN(C(=O)c2ccccc2F)CC1)NC12CC3CC(CC(C3)O1)C2 [Compound 21, 1-(2-Oxaadamant-1-yl)-3-(1-(2-fluorobenzoyl)piperidin-4-yl)urea]
inhibition of hLOX-5 [6]: displayed significant inhibition
cytotoxicity in the PBMC [4]: not cytotoxic

SMILES: CC(C)S(=O)(=O)N1CCC(NC(=O)NC23CC4CC(CC(C4)O2)C3)CC1 [Compound 22, 1-(2-Oxaadamant-1-yl)-3-(1-(isopropylsulfonyl)piperidin-4-yl)urea]
inhibition of hLOX-5 [6]: displayed significant inhibition
increase of inflammatory (TNF-α, IL1-β and MCP-1) and ER stress (ATF3) markers produced by cerulein ([7]; pre-induction, 30 mg/kg): significantly reduced
cerulein-induced edema and inflammation (H&E histology) ([7]; treated before the induction of AP): significant decrease
increase in the expression of IL-6, CHOP and TRB3 caused by cerulein [8]: completely abolished
increment in TNF-α caused by cerulein exposure [8]: strongly attenuated
potency inhibiting the different cytochromes tested [3]: higher than 10 μM
inflammatory (TNF-α, IL-1β and MCP-1) and ER stress (ATF3) markers mRNA ([9]; 3 mg/kg): did not cause a significant reduction
inflammatory (TNF-α, IL-1β and MCP-1) and ER stress (ATF3) markers mRNA ([9]; 30 mg/kg): significant reduction
cerulein-induced edema and inflammation (H&E histology) ([9]; treated after the induction of AP): significant decrease
toxic effects (body weight, behavior problems, petechiae) [10]: No toxic effects were observed
Cl [11]: 28.41 L/h/kg
cytotoxicity in the PBMC [4]: not cytotoxic
inhibition on hERG [5]: minimal inhibition

SMILES: O=C(NC1CCN(C(=O)C2CC2)CC1)NC12CC3CC(CC(C3)O1)C2 [Compound 23, 1-(2-Oxaadamant-1-yl)-3-(1-(cyclopropanecarbonyl)-piperidin-4-yl)urea]
reduction of the potency (hsEH) relative to 12 [2]: 10–15 fold

SMILES: CCC(=O)N1CCC(NC(=O)NC23CC4CC(CC(C4)O2)C3)CC1 [Compound 24, 1-(2-Oxaadamantan-1-yl)-3-(1-propionylpiperidin-4-yl)urea]
inhibition of hLOX-5 [6]: displayed significant inhibition
reduction of the potency (hsEH) relative to 12 [2]: 10–15 fold

SMILES: CS(=O)(=O)N1CCC(NC(=O)NC23CC4CC(CC(C4)O2)C3)CC1 [Compound 26, 1-(2-Oxaadamantan-1-yl)-3-(1-(methylsulfonyl)piperidin-4-yl)urea]
reduction of the potency (hsEH) relative to 12 [2]: eight
